{"source": "patent US8048869B2", "about": "“Pharmaceutical composition for use in hormone replacement therapy” (Pantarhei Bioscience B.V., priority 2001, dated 2011)", "key": {"[1]": {"molecular_target": "T1, human sex Hormone Binding Globulin (SHBG) (Homo sapiens, UniProt P04278)", "T1 construct": "Human SHBG was purified from transgenic mouse serum, as described previously; from tissue; host or cells: serum of mice transgenic for human SHBG", "T1 sequence (P04278 30-402)": "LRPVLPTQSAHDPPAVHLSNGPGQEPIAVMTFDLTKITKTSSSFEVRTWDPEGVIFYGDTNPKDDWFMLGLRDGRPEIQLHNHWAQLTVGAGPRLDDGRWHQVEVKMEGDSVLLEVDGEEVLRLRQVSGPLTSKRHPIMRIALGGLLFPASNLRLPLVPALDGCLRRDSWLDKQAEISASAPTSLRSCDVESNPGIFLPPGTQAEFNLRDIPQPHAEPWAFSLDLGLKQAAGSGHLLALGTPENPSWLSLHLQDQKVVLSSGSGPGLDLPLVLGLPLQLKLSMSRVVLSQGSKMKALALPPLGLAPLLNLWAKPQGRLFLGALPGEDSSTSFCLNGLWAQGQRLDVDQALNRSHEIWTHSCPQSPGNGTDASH", "test": "Competitive steroid-binding assay, SHBG", "settings": "[3H]DHT or [3H]estradiol as labeled ligands (FIG. 6)", "protocol": "Human SHBG was treated for 30 min at room temperature with a dextran-coated charcoal (DCC) suspension in phosphate buffered saline (PBS) to remove any steroid ligand. After centrifugation (2,000×g for 10 min) to sediment the DCC, the supernatant containing the human SHBG was diluted in PBS to a concentration of 1 nM based on its steroid binding capacity.\nAfter incubation for 1 h at room temperature the. reaction mixtures were placed in an ice bath for a further 15 muin. […] The average amounts of [^3H]labeled ligands bound to SHBG at each concentration of competitor (B) were expressed as a percentage of the average amounts of [^3H]labeled ligands bound to SHBG in the absence of competitor (B0), and were plotted against the concentration of competitor in each assay tube."}, "OVX-rats [2]": {"tested_on": "OVX-rats", "test": "pQCT densitometry of proximal tibiae, ovariectomized aged rat osteoporosis model", "assay_type": "in vivo", "settings": "po, 0.1 mg/kg/day, 4 weeks, proximal tibiae", "protocol": "(§1) The ovariectomized aged rat was used as a model for the human disease osteoporosis. This is an established animal model, recommended by the United States Food and Drug Administration (FDA), to evaluate and assess potential agents for osteoporosis prevention and therapy. The anti-resorptive efficacy of estetrol (E4) was tested by ex vivo measuring total and trabecular bone mineral density and bone strength after 4 weeks of treatment at necropsy. 17α-ethinyl-estradiol (EE) and vehicle (1% ethanol/arachidis oil) served as controls in this bioassay.\n(§2) Three months old female Sprague-Dawley rats were either sham-operated (Sham) or ovariectomized (OVX) one day prior to commencement of the dosing study. Animals were anesthetized using a ketamine/xylazine anesthetic mixture and underwent a bilateral ovariectomy or were sham-treated. A section of hair on the dorsal surface was shaved and an incision made overlying the lumbar region of the spine. The skin was separated from the underlying fascia so that a second incision could be made through the abdominal musculature approximately caudal to the kidneys. The ovaries were then exteriorized and removed and the musculature was closed with a single suture. The skin incision was closed using surgical staples.\nTen animals per treatment group were orally dosed once per day for four consecutive weeks. […] Vehicle control was daily administered to one group of OVX-animals and sham-operated rats. After treatment, anesthetized rats were subjected to cardiac puncture and asphyxiated by CO2 inhalation. Tibiae and femura were removed, cleaned of soft-tissue and fixed and stored in 70% ethanol/saline at 4° C. (tibia) or saline at 4° C. (femura) until fuirther analysis.\nEx vivo peripheral Quantitative Computed Tomography (pQCT) was performed on the excised left tibiae using a Stratec XCT-RM and associated software (Stratec Medizintechnik GmbH, Pforzheim; Germany, software version 5.40). The scans were performed at 12% of the total length from the proximal end of the tibiae. The positions were verified using scout views and one 0.5-mm slice perpendicular to the long axis of the tibial shaft was acquired from each site. The scans were analyzed using a threshold for delineation of the external boundary. The total and trabecular bone mineral content, area and density at each site were determined. Furthermore, pQCT data for mean total bone mineral density are depicted in FIG. 1."}, "OVX-rats [3]": {"tested_on": "OVX-rats", "test": "Indentation test of distal femur (bone biomechanical strength), OVX rat", "assay_type": "in vivo", "settings": "po, 0.1 mg/kg/day, 4 weeks, distal femur", "protocol": "as §1, §2\nTen animals per treatment group were orally dosed once per day for four consecutive weeks. The dosing commenced 1 day after surgical removal of the ovaries and was administered by oral gavage using a syringe and stainless steel gavage needle at doses of 0.1 mg/kg /day EE, or either 2.5, 0.5 or 0.1 mg/kg/day E4. Vehicle control was daily administered to one group of OVX-animals and sham-operated rats. After treatment, anesthetized rats were subjected to cardiac puncture and asphyxiated by CO2 inhalation. Tibiae and femura were removed, cleaned of soft-tissue and fixed and stored in 70% ethanol/saline at 4° C. (tibia) or saline at 4° C. (femura) until fuirther analysis.\nEx vivo evaluation of bone biomechanical strength was performed with an indentation test at the distal femura. Prior to mechanical testing femura were rinsed in cold saline and carefully cleaned of any remaining adherent soft tissue. A 3-mm segment of the distal femoral metaphysis was cut directly proximal to the femoral condyle with a low-speed diamond saw under constant saline irrigation. The load was applied with a cylindrical indenter (with a flat testing face of 1.6 mm diameter) to the center of marrow cavity on the distal face of the segment. The indenter was allowed to penetrate the cavity at a constant displacement of 6 mm/min to a depth of 2 mm before load reversal.\nThe maximum load, stiffness and energy absorbed were determined from load displacement curves. Ultimate strength was calculated by dividing the maximum load by the indenter area. Furthermore, mean ultimate strength values are depicted in FIG. 2. […] Reductions in maximum load, stiffness, energy and ultimate strength were −68%, −68%, −27% and −68%, respectively, clearly accompanying the bone mineral density loss in estrogen deficient rats."}}, "data": [{"smiles": "C[C@]12CCC(=O)C[C@@H]1CC[C@@H]1[C@@H]2CC[C@]2(C)[C@@H](O)CC[C@@H]12", "note": "[5α-dihydrotestosterone]", "values": [{"measurement": "relative binding affinity for human SHBG", "setting": "[1]", "result": "in this order, show an increased relative binding affinity"}]}, {"smiles": "C[C@]12CC[C@H]3[C@@H](CCC4=CC(=O)CC[C@@]43C)[C@@H]1CC[C@@H]2O", "note": "[testosterone]", "values": [{"measurement": "relative binding affinity for human SHBG", "setting": "[1]", "result": "in this order, show an increased relative binding affinity"}]}, {"smiles": "C#C[C@]1(O)CC[C@H]2[C@@H]3CCc4cc(O)ccc4[C@H]3CC[C@@]21C", "note": "[EE, 17α-ethinyl estradiol, reference compound]", "values": [{"measurement": "Mean Total Bone Mineral Area", "setting": "OVX-rats [2]", "result": 13.87, "unit": "mm^2"}, {"measurement": "Mean Total Bone Mineral Content", "setting": "OVX-rats [2]", "result": 9.66, "unit": "mg/mm"}, {"measurement": "Mean Total Bone Mineral Density", "setting": "OVX-rats [2]", "result": 697.48, "unit": "mg/mL"}, {"measurement": "Mean Trabecular Bone Mineral Area", "setting": "OVX-rats [2]", "result": 6.24, "unit": "mm^2"}, {"measurement": "Mean Trabecular Bone Mineral Content", "setting": "OVX-rats [2]", "result": 1.81, "unit": "mg/mm"}, {"measurement": "Mean Trabecular Bone Mineral Density", "setting": "OVX-rats [2]", "result": 290.16, "unit": "mg/mL"}, {"measurement": "Energy", "setting": "OVX-rats [3]", "result": 0.53, "unit": "mJ"}, {"measurement": "Maximum load", "setting": "OVX-rats [3]", "result": 9.05, "unit": "N"}, {"measurement": "Stiffness", "setting": "OVX-rats [3]", "result": 169.12, "unit": "N/mm"}, {"measurement": "Ultimate strength", "setting": "OVX-rats [3]", "result": 4.80, "unit": "N/mm2"}]}]}
